Test results published in US11123334B2 (priority 2018, dated 2021).

What was measured:
rhesus monkeys [1] = test: Intravenous drug self-administration (heroin or cocaine), fixed-ratio 30 schedule; assay type: in vivo; conditions: for duration of action on responding for heroin (in words): after a single administration; for responding for cocaine: naltrexone 0.032 mg/kg, MCAM 0.32 mg/kg, cocaine 0.032 mg/kg/infusion; for responding for heroin: session following s.c. pretreatment, heroin 0.0032 mg/kg/infusion
rhesus monkeys [2] = test: Heroin-induced respiratory depression, head plethysmograph, seated monkeys; conditions: for duration in reversing and protecting against heroin-induced respiratory depression: FIG. 2; for antagonism of respiratory-depressant effects of heroin: day after (24 hours after) antagonist administration
μ opioid receptors = target: T1, μ opioid receptors (Mus musculus, UniProt P42866); conditions: cited from earlier work
T1 construct: host or cells: live mouse (endogenous receptor)
T1 sequence (P42866 whole entry): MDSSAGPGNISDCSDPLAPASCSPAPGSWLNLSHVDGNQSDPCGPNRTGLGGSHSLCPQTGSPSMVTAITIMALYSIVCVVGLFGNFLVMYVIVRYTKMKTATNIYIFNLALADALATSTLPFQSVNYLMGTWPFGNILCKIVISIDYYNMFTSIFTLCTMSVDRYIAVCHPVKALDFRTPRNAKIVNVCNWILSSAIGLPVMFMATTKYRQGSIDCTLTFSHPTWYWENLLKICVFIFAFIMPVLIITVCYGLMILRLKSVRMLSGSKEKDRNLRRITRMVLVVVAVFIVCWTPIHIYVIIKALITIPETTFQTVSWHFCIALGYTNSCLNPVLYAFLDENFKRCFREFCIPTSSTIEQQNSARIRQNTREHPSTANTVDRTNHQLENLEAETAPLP

| SMILES | duration of action on responding for heroin (in words) (rhesus monkeys [1]) | time responding for heroin remained decreased (rhesus monkeys [1]; after a single injection of antagonist) | responding for cocaine (rhesus monkeys [1]) | responding for heroin (rhesus monkeys [1]) | reversal of opioid agonist side effects (respiratory depression) (rhesus monkeys [2]; 0.32 mg/kg subcutaneously, monkeys received heroin 0.1-1.0 mg/kg) | respiratory-depressant effects of heroin after antagonist (rhesus monkeys [2]; 4 days after administration of antagonist) | duration in reversing and protecting against heroin-induced respiratory depression (rhesus monkeys [2]) | antagonism of respiratory-depressant effects of heroin (rhesus monkeys [2]) | antagonism of morphine (μ opioid receptors; 48 hours later) | effect on antinociception of 1000 mg/kg morphine (μ opioid receptors; one hour after administration) | decrease of respiration by heroin (rhesus monkeys [2]; monkeys breathing air, largest heroin dose tested, s.c.) | duration of action on responding for heroin (in words) (rhesus monkeys [1]; listed as Naltrexone) |
| --- | --- | --- | --- | --- | --- | --- | --- | --- | --- | --- | --- | --- |
| Cc1ccc(/C=C/C(=O)N[C@@]23CCC(=O)[C@@H]4Oc5c(O)ccc6c5[C@@]42CCN(CC2CC2)[C@@H]3C6)cc1 [MCAM, methocinnamox] | more than one week | up to 8 days | did not affect responding for cocaine | decreased responding for heroin | reversed | not affected | long duration | continued to antagonize | marked antagonism of morphine | prevented any antinociceptive effect |  |  |
| CC(=O)Oc1ccc2c3c1O[C@H]1[C@@H](OC(C)=O)C=C[C@H]4[C@@H](C2)N(C)CC[C@@]341 [heroin, reference compound] |  |  |  |  |  |  |  |  |  |  | ≤ 70 % of control |  |
| C=CCN1CC[C@]23c4c5ccc(O)c4O[C@H]2C(=O)CC[C@@]3(O)[C@H]1C5 [naloxone, reference compound] |  |  |  |  |  |  | short duration |  |  |  |  |  |
| O=C1CC[C@@]2(O)[C@H]3Cc4ccc(O)c5c4[C@@]2(CCN3CC2CC2)[C@H]1O5 [naltrexone, reference compound] | less than one day |  | did not affect responding for cocaine | decreased responding for heroin |  |  |  | no longer effective |  |  |  | returning to baseline levels the next day |
